# Reference: US20040115813A1, “Real time measurement of cellular responses” (priority 2002, published 2004)
# Key:
# Assay type in all cases: cell-based, human
# [1] = tested on: PC-3 dual cells; experiment: Real-time visualization of drug-induced apoptosis and nuclear morphology in dual-labeled cells
# Source text: The dual-color cells could be easily placed in their cell cycle position by the “nuclear-cytoplasmic” ratio as observed in living cells. For fluorescence microscopy of these cells, a Leica fluorescence stereo microscope model LZ12 equipped with a mercury 50W lamp power supply was used. To visualize both GFP and RFP fluorescence at the same time, excitation was produced through a D425/60 band pass filter, 470 DCXR dichroic mirror, and emitted fluorescence was collected through a long pass filter GG475 (Chroma Technology, Brattleboro, Vt.).
# (§1) PC-3 dual cells were treated with Taxol™ (0.8 ug/ml); thymidine (2 mM), and vinblastine (60 nM). Real-time imaging was done at 0, 12, 24, 36, and 48 hours. Cells were collected for DNA extraction and agarose gel electrophoresis (1.8%) analysis. […] The nuclear ring structures were […] by 24 hours.
# [2] = tested on: PC-3 dual cells; experiment: DNA extraction and agarose gel electrophoresis (1.8%) for DNA fragmentation; details: Taxol 0.8 μg/ml
# Method: as §1
# [3] = tested on: HT-1080-dual-6 cells; experiment: Real time observation of apoptotic process in vitro by fluorescence microscopy; details: 2 μM staurosporine; for apoptosis induction: imaged every 2 hours up to 12 hours; for nuclear/cytoplasmic morphology during apoptosis: images at 2-12 hours
# Method: HT-1080-dual-6 cells were incubated with 2 μM staurosporine for apoptosis induction. The cells were visualized under blue light and images were captured with a CCD camera and fluorescence microscope. […] Bar, 50 μm. […] Bar, 10 μm.
# To capture the images of real time apoptotic processes, the HT-1080-dual-6 clone was used. Staurosporine (Alexis, San Diego, Calif.), dissolved in DMSO and stored at −80 degrees, was used for induction of apoptosis. 3×10^5 cells were seeded in a 25 cm^2 flask with RPMI 1640 with 10% FBS. Staurosporine was added the next day at a concentration of 2 μM. Every 2 hours, the flask was set under the fluorescent stereo microscope and real time images were captured at each time point.
smiles,measurement,setting,value
"CC(=O)O[C@H]1C(=O)[C@@]2(C)[C@H]([C@H](OC(=O)c3ccccc3)[C@]3(O)C[C@H](OC(=O)[C@H](O)[C@@H](NC(=O)c4ccccc4)c4ccccc4)C(C)=C1C3(C)C)[C@]1(OC(C)=O)CO[C@@H]1C[C@@H]2O [Taxol™, Paclitaxel]",effect on nuclei (morphology),"[1]; Taxol 0.8 μg/ml, by 24 hours",form a ring-shaped structure
same,apoptosis (aberrant nuclear structures and fragmentation),"[1]; Taxol 0.8 μg/ml, by 48 hours",entering apoptosis with very aberrant nuclear structures and fragmentation
same,DNA fragmentation by gel electrophoresis,[2]; 24 hours,before DNA fragmentation occurred
same,DNA fragmentation by gel electrophoresis,[2]; 48 hours,DNA fragmentation could be observed
CN[C@@H]1C[C@H]2O[C@@](C)([C@@H]1OC)n1c3ccccc3c3c4c(c5c6ccccc6n2c5c31)C(=O)NC4 [Staurosporine],apoptosis induction,[3],induced apoptosis
same,apoptosis induction,[3]; listed as staurosporine,Apoptosis was well induced
same,nuclear/cytoplasmic morphology during apoptosis,[3],Progressive fragmentation of nucleus
same,nuclear/cytoplasmic morphology during apoptosis,[3]; listed as staurosporine,condensation of cytoplasm and nucleus and fragmentation of nucleus
CC[C@]1(O)C[C@@H]2CN(CCc3c([nH]c4ccccc34)[C@@](C(=O)OC)(c3cc4c(cc3OC)N(C)[C@H]3[C@@](O)(C(=O)OC)[C@H](OC(C)=O)[C@]5(CC)C=CCN6CC[C@]43[C@@H]65)C2)C1 [vinblastine],effect on cell nuclei and cytoplasm (morphology),[1]; vinblastine 60 nM,nuclei became more condensed and the cytoplasm appeared to expand
